Results as given in patent US20020052295A1, “Diacyl derivatives of propylene diamine having herbicidal activity” (priority 1999, published 2002).

Key:
Settings in all cases: lowest tested rate giving 80% or greater inhibition, approx. 14 days after planting and treating, greenhouse
ABUTH = test: Pre-emergence herbicidal activity on ABUTH (velvetleaf); type: in vivo, Abutilon theophrasti
How it was run: (§1)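 Whole-plant pre-emergence assay: compound diluted into 50:50 acetone:water and applied over covered seeds in sterilized soil. Growth at 30/21 °C under mist/subirrigation; inhibition vs untreated at ~14 days, reported as GR80 over rates to typically 1000 g/ha.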

SOLNI = test: Pre-emergence herbicidal activity on SOLNI (black nightshade); type: in vivo, Solanum nigrum
How it was run: as §1

AMARE = test: Pre-emergence herbicidal activity on AMARE (redroot pigweed); type: in vivo, Amaranthus retroflexus
How it was run: as §1

DATST = test: Pre-emergence herbicidal activity on DATST (jimsonweed); type: in vivo, Datura stramonium
How it was run: as §1

CHEAL = test: Pre-emergence herbicidal activity on CHEAL (common lambsquarters); type: in vivo, Chenopodium album
How it was run: as §1

CONAR = test: Pre-emergence herbicidal activity on CONAR (field bindweed); type: in vivo, Convolvulus arvensis
How it was run: as §1

POROL = test: Pre-emergence herbicidal activity on POROL (common purslane); type: in vivo, Portulaca oleracea
How it was run: as §1

CIRAR = test: Pre-emergence herbicidal activity on CIRAR (canada thistle, seedling); type: in vivo, Cirsium arvense
How it was run: as §1

ECHCG = test: Pre-emergence herbicidal activity on ECHCG (barnyardgrass); type: in vivo, Echinochloa crus-galli
How it was run: as §1

PANMI = test: Pre-emergence herbicidal activity on PANMI (wild proso millet); type: in vivo, Panicum miliaceum
How it was run: as §1

SORHA = test: Pre-emergence herbicidal activity on SORHA (johnsongrass, seedling); type: in vivo, Sorghum halepense
How it was run: as §1

SETFA = test: Pre-emergence herbicidal activity on SETFA (giant foxtail); type: in vivo, Setaria faberi
How it was run: as §1

PANDI = test: Pre-emergence herbicidal activity on PANDI (fall panicum); type: in vivo, Panicum dichotomiflorum
How it was run: as §1

SORVU = test: Pre-emergence herbicidal activity on SORVU (shattercane); type: in vivo, Sorghum vulgare
Description: All such uses, and the biological activity enabling such uses, are embraced by the term “herbicidal” herein. Tables 15 and 16 summarize results of tests conducted as described below to determine the pre-emergence herbicidal activity, in the form of a GR80 value, of illustrative compounds of this invention. […] Where herbicidal activity was evident but 80% inhibition was not achieved at the highest rate tested (typically 1000 g/ha), an asterisk (*) is shown in the following tables. Herbicidal activity evident in the form of symptoms of phytotoxicity, in the absence of at least 80% inhibition at any rate, is indicated in the tables by “phyto”. A blank cell in the following tables indicates no herbicidal or phytotoxic response at any rate tested.
The pre-emergence tests were conducted by the following procedure. Topsoil was sieved to pass through a 1.27 cm screen. Fertilizer was added to the topsoil and the mixture was then sterilized by heating. The topsoil mixture was placed in a pot and compacted to a depth of 1.0 to 1.25 cm from the top of the pot. Seeds of each of several monocotyledonous and dicotyledonous annual plant species were placed on top of the soil. Additional soil was subsequently placed over the seeds to level-fill the pot. A known amount of each test compound dissolved or suspended in an appropriate organic solvent was diluted with a 50:50 mix of acetone and water and applied to the surface of the soil. After treatment the plants were placed in a greenhouse with a 30/21° C. day/night temperature regime where they received 0.64 cm of overhead irrigation. All subsequent watering consisted of a light overhead mist and/or subirrigation as needed for germination and growth.
Approximately 14 days after planting and treating, the plants were observed and herbicidal efficacy recorded as percent inhibition by comparison with untreated plants.
The plant species usually regarded as weeds which were utilized in the tests are identified in the tables below according to the following legend, in which “d” indicates a dicotyledonous species and “m” a monocotyledonous species. All monocotyledonous species included in the tests herein are grasses.

BRAPP = test: Pre-emergence herbicidal activity on BRAPP (broadleaf signalgrass); type: in vivo, Brachiaria platyphylla
How it was run: as §1

DIGSA = test: Pre-emergence herbicidal activity on DIGSA (large crabgrass); type: in vivo, Digitaria sanguinalis
How it was run: as §1

Structure (SMILES): CC(CNC(=O)c1cccc(C(F)(F)F)c1)NC(=O)c1cccc(C(F)(F)F)c1Cl (stereo not drawn) [Example 14]
- Pre-emergence activity (GR80) on ABUTH (ABUTH): 250 g/ha
- Pre-emergence activity (GR80) on SOLNI (SOLNI): 125 g/ha
- Pre-emergence activity (GR80) on AMARE (AMARE): 125 g/ha
- Pre-emergence activity (GR80) on DATST (DATST): 64 g/ha
- Pre-emergence activity (GR80) on CHEAL (CHEAL): 64 g/ha
- Pre-emergence activity (GR80) on CONAR (CONAR): 125 g/ha
- Pre-emergence activity (GR80) on PORAL (POROL): 125 g/ha
- Pre-emergence activity (GR80) on CIRAR (CIRAR): 64 g/ha
- Pre-emergence activity (GR80) on ECHCG (ECHCG): 1000 g/ha
- Pre-emergence activity (GR80) on PANMI (PANMI): 500 g/ha
- Pre-emergence activity (GR80) on SORHA (SORHA): 500 g/ha
- Pre-emergence activity (GR80) on SETFA (SETFA): 250 g/ha
- Pre-emergence activity (GR80) on PANDI (PANDI): 250 g/ha
- Pre-emergence activity (GR80) on SORVU (SORVU): phyto
- Pre-emergence activity (GR80) on BRAPP (BRAPP): 500 g/ha
- Pre-emergence activity (GR80) on DIGSA (DIGSA): 125 g/ha

Structure (SMILES): Cc1c(F)cccc1C(=O)NC(C)CNC(=O)c1cccc(C(F)(F)F)c1 (stereo not drawn) [Example 38]
- Pre-emergence activity (GR80) on ABUTH (ABUTH): 125 g/ha
- Pre-emergence activity (GR80) on SOLNI (SOLNI): 250 g/ha
- Pre-emergence activity (GR80) on AMARE (AMARE): 32 g/ha
- Pre-emergence activity (GR80) on DATST (DATST): 125 g/ha
- Pre-emergence activity (GR80) on CHEAL (CHEAL): 64 g/ha
- Pre-emergence activity (GR80) on CONAR (CONAR): 250 g/ha
- Pre-emergence activity (GR80) on PORAL (POROL): 32 g/ha
- Pre-emergence activity (GR80) on CIRAR (CIRAR): 125 g/ha
- Pre-emergence activity (GR80) on ECHCG (ECHCG): 1000 g/ha
- Pre-emergence activity (GR80) on PANMI (PANMI): 250 g/ha
- Pre-emergence activity (GR80) on SORHA (SORHA): 500 g/ha
- Pre-emergence activity (GR80) on SETFA (SETFA): 250 g/ha
- Pre-emergence activity (GR80) on PANDI (PANDI): 250 g/ha
- Pre-emergence activity (GR80) on SORVU (SORVU): * (Where herbicidal activity was evident but 80% inhibition was not achieved at the highest rate tested (typically 1000 g/ha), an asterisk (*) is shown)
- Pre-emergence activity (GR80) on BRAPP (BRAPP): 250 g/ha
- Pre-emergence activity (GR80) on DIGSA (DIGSA): 125 g/ha

Structure (SMILES): Cc1ccc(Cl)cc1C(=O)NC(C)CNC(=O)c1cccc(C(F)(F)F)c1 (stereo not drawn) [Example 47]
- Pre-emergence activity (GR80) on ABUTH (ABUTH): 250 g/ha
- Pre-emergence activity (GR80) on SOLNI (SOLNI): 125 g/ha
- Pre-emergence activity (GR80) on AMARE (AMARE): 64 g/ha
- Pre-emergence activity (GR80) on DATST (DATST): 250 g/ha
- Pre-emergence activity (GR80) on CHEAL (CHEAL): 64 g/ha
- Pre-emergence activity (GR80) on CONAR (CONAR): 750 g/ha
- Pre-emergence activity (GR80) on PORAL (POROL): 125 g/ha
- Pre-emergence activity (GR80) on CIRAR (CIRAR): 125 g/ha
- Pre-emergence activity (GR80) on ECHCG (ECHCG): phyto
- Pre-emergence activity (GR80) on PANMI (PANMI): 250 g/ha
- Pre-emergence activity (GR80) on SORHA (SORHA): 750 g/ha
- Pre-emergence activity (GR80) on SETFA (SETFA): 250 g/ha
- Pre-emergence activity (GR80) on PANDI (PANDI): 250 g/ha
- Pre-emergence activity (GR80) on SORVU (SORVU): phyto
- Pre-emergence activity (GR80) on BRAPP (BRAPP): 500 g/ha
- Pre-emergence activity (GR80) on DIGSA (DIGSA): 125 g/ha
